Converted amounts (≈) assume the structure as drawn. “Also recorded” adds a separate entry of the source. Where two headings read alike, the source gives them in different places.
How the values were obtained:
[1] = test system: opioid receptors of the guinea pig ileum; type: cell-based; conditions: for inhibition of electrically induced contractions / antagonism by naloxone / opioid (opiate-like) activity in vitro: words; for antagonism by naloxone: naloxone 0.5, 5 and 50 ng/ml (eseroline) or 5 and 50 ng/ml; for opioid (opiate-like) activity in vitro: isolated tissue preparations; for log dose ratio (±S.D.), shift by naloxone, ileum: mean of not less than 6 determinations; for enhancement of electrically induced contractions / excitatory stage: eseroline above 400 ng/ml in presence of naloxone; for evidence of cholinesterase inhibition on the ileum: inferred from enhancement of contractions
Procedure: Sections of guinea-pig ileum were set up for transmural stimulation under a resting tension of 0.75 g in Krebs solution bubbled with 5% carbon dioxide in oxygen at 37 degrees C according to the method of Kosterlitz and Watt (1968) Contractions were elicited from stainless steel electrodes, one of which was sited in the lumen at supramaximal voltage and a frequency of 0.05 Hz. Isometric contractions were recorded on a Rikadenki recorder. Potential agonists were added directly to the bath and the contact time was until maximum inhibition had occurred. The responses of the preparation in the presence of naloxone were examined with the naloxone present in the physiological solution. Results were expressed as percent inhibition. In each experiment a log dose effect relationship was determined using at least four concentrations in the absence of antagonist, and then in the presence of one or more concentrations of naloxone.
(§1) Eseroline was dissolved in minimal 0.1N hydrophloric acid and dilutions made with water. Salts were dissolved in water.

[2] = test system: cholinesterase (guinea pig ileum as the enzyme source); experiment: Anticholinesterase Test (method of Ellman, Courtney et al.); type: biochemical; conditions: concentrations up to 6.4 ug/ml where stated
Procedure: Anticholinesterase activity was assessed using the method of Ellman, Courtney et al., (1961) using guinea pig ileum as the enzyme source.

mice [3] = experiment: animal or person; type: in vivo, mouse; conditions: for ED50: Mus musculus, read-out: ED50 Hot Plate; for antagonism of analgesia by naloxone: analgesic tests (Hot Plate and Abdominal Constriction)
Procedure: (§2) Analgesic activity was assessed using two methods in mice--the Hot Plate Test and the Abdominal Constriction Test (acetic acid). The test drug was given by subcutaneous injection and the results expressed as ED50 with 95% confidence intervals.
(§3) ED50 and 95% confidence intervals.
(§4) mg/kg, subcutaneous injection.

[4] = test system: opioid receptors of the mouse vas deferens; type: cell-based; conditions: for log dose ratio (±S.D.), shift by naloxone, vas deferens: mean of not less than 6 determinations
Procedure: Vasa deferentia were removed and mounted in 1.2 ml tissue baths under a resting tension of 200 mg in Mg^2+ -free Krebs solution bubbled with a mixture of 95% oxygen and 5% carbon dioxide at 36 degrees C. The preparations were left for 1 hour to equilibriate. Contractions were elicited from platinum electrodes fused to the sides of the tissue bath using supramaximal voltage (usually above 100 V), a pulse width of lms and a frequency of 0.1 Hz. Isometric contractions were recorded on a Grass polygraph. As with the ileum, concentration effect relationships were determined in the absence then presence of naloxone.
as §1
The values are derived from individual comparisons of the percentage inhibition of the preparations in the presence of a concentration of naloxone and that in the same preparation in the absence of naloxone.

mice [5] = experiment: animal or person; type: in vivo; conditions: Mus musculus, sc, subcutaneous injection, 95% confidence intervals, read-out: ED50 Abdominal Constriction (Acetic acid)
Procedure: as §2, §3, §4

cholinesterase = conditions: cited from earlier work
[6] = relative to morphine; cited from earlier work
[7] = Naloxone 10 ng/ml (so in the source)

Row | Compound | antagonist activity against morphine [1] | inhibition of electrically induced contractions ([1]; guinea pig ileum) | antagonism by naloxone ([1]; guinea pig ileum) | receptor selectivity / receptor population compared with morphine [1] | opioid (opiate-like) activity in vitro [1] | antagonism of analgesia by naloxone (mice [3]; mice) | enhancement of electrically induced contractions / excitatory stage ([1]; guinea pig ileum) | evidence of cholinesterase inhibition on the ileum [1] | also measured
1 | CN1c2ccc(O)cc2C23CCCCC12N(CC1CC1)CC3 (racemic) [1,2,3,4-tetrahydro-6-hydroxy-9-methyl-10-cyclopropylmethyl-9a,4a-(iminoethano)-9H-carbazole] | no detectable antagonist activity against morphine | inhibited the contractions of the ileum, but was of weaker potency | Naloxone had little antagonist activity | – | – | – | – | – | –
2 | C=CCN1CCC23CCCCC12N(C)c1ccc(O)cc13 (racemic) [6-Hydroxy-9-methyl-10-allyl-echiboline, 1,2,3,4-tetrahydro-6-hydroxy-9-methyl-10-allyl-9a,4a-(iminoethano)-9H-carbazole] | no antagonist activity against morphine | – | antagonized by naloxone; also recorded: relative lack of potency of naloxone as an antagonist | interaction with a different receptor population than that with which morphine interacts; also recorded: likely to be the "kappa" receptor | possesses opioid agonist activity in vitro | – | – | – | IC50, inhibition of contractions of the ileum [1]: 0.3 µg/mL; potency relative to morphine [1]: about ten times less potent than morphine
3 | CN1CCC23CCCCC12N(C)c1ccc(O)cc13 (racemic) [6-hydroxy-9,10-dimethyl-echiboline, 1,2,3,4-tetrahydro-6-hydroxy-9,10-dimethyl-9a,4a-(iminoethano)-9H-carbazole] | – | similarly inhibited the electrically-induced contractions | antagonised by naloxone in a concentration-dependent manner | differs from that of morphine | possessed opiate-like activity | antagonised by naloxone | at no stage was an excitatory stage seen; also recorded: No enhancement of contractions was seen | no evidence of cholinesterase inhibition | anti-cholinesterase inhibitory activity [2]: no evidence of cholinesterase inhibitory activity; anti-cholinesterase inhibitory activity ([2]; listed as echiboline derivative): no detectable anti-cholinesterase inhibitory activity; ED50 (mice [3]; sc, mice, subcutaneous injection, 95% confidence intervals): 1.71 mg/kg; potency relative to morphine in mice (mice [3]; mouse, in vivo, sc): somewhat greater than that predicted from the in vitro tests; log dose ratio (±S.D.), shift by naloxone, ileum ([1]; Naloxone 5 ng/ml): 0.91 (+0.27); log dose ratio (±S.D.), shift by naloxone, ileum [1, 7]: 1.54 (+0.22); EC50 (±SD) Guinea-pig ileum ([1]; Table 1, mean of not less than 12 determinations, S.D. range on next line): 0.0335 µg/mL (≈ 0.13 µM); inhibition, some individual values ([1]; guinea pig ileum, individual values): over 90%; antagonism by naloxone compared with morphine [4]: some ten times less effective as an antagonist than against morphine; log dose ratio (±S.D.), shift by naloxone, vas deferens [4, 7]: 0.87 (+0.19); log dose ratio (±S.D.), shift by naloxone, vas deferens ([4]; Naloxone 500 ng/ml): 1.66 (+0.13); ED50 (mice [5]): 0.23 mg/kg
4 | CN1CCC2(C)c3cc(O)ccc3N(C)C12 (single isomer, unassigned) [eseroline, reference compound] | – | concentration-dependent inhibition of contractions | antagonised by naloxone in a concentration-dependent manner | – | has opiate activity | – | enhanced electrically-induced contractions of the muscle | evidence for anti-cholinesterase activity was also seen | maximum inhibition of electrically induced contractions ([1]; guinea pig ileum): about 50%; anticholinesterase activity (cholinesterase): retains undesirable anticholinesterase activity; analgesic properties [6]: approximately equipotent with morphine
5 | C=CCN1CC[C@]23c4c5ccc(O)c4O[C@H]2C(=O)CC[C@@]3(O)[C@H]1C5 [Naloxone, naloxone, reference compound] | – | – | – | – | – | effective antagonist | – | – | –
6 | CN1CC[C@]23c4c5ccc(O)c4O[C@H]2[C@@H](O)C=C[C@H]3[C@H]1C5 [morphine, reference compound] | – | familiar inhibition of the preparation | naloxone antagonism was confirmed | – | – | – | – | – | ED50 (mice [3]; sc): 3.22 mg/kg; times more potent than (±)-6-hydroxy-9,10-dimethyl-echiboline ([1]; guinea pig ileum, from EC50 values): 2.8 times; times more potent than (±)-6-hydroxy-9,10-dimethyl-echiboline ([4]; mouse vas deferens, from EC50 values): 3.6 times
